From patent US20160310501A1, “GABA[…] SIGMA RECEPTOR LIGANDS COMBINATIONS” (LABORATORIOS DEL DR. ESTEVE, S.A., priority 2013, published 2016) come the findings set out here.

This assay has as its system post-operative pain model in rats. Nature of the assay: Mechanical allodynia (von Frey filaments) in the post-operative pain model (plantar incision). The assay is classed as in vivo. The protocol: The induction of anesthesia in rats was performed with 3% isofluran for veterinary use, employing an Ohmeda vaporizer and an anesthesia chamber. Anesthesia was kept during the surgical operation by a tube which directs the isofluran vapors to the animal's snout. Once the rats were anesthetized, they were laid down in a prone position and their right hind paws were cleaned out with alcohol.
Then, a skin incision in the hindpaw of about 10 mm was made by means of a scalpel, starting about 5 mm from the heel and extending toward the toes. Fascia was located and by means of curve scissors muscle was elevated and a longitudinal incision of about 5 mm was made, thus the muscle origin and insertion remained intact. The skin of the paw was stitched with a suturing stitch with breaded silk (3.0) and the wound was cleaned out with povidone.
The assessment was performed 30 minutes after the administration of product and always 4 hours after the plantar incision. The analysis was carried out evaluating the mechanical allodynia. It was tested using von Frey filaments: Animals were placed in methacrylate cylinders on an elevated surface, with metallic mesh floor perforated in order to apply the filaments. After an acclimation period of about 30 minutes within the cylinders, both hindpaws were stimulated (the injured and the non-injured paw, serving the latter as control), starting with the lowest force filament (0.4 g) and reaching a 15 g filament. The animal's response to pain was manifested by the withdrawal of the paw as a consequence of the painful stimulus caused by a filament.
The efficacy of the combined use of Pregabalin and compound 63.HCl was tested at different doses of compound 63.HCl (5, 10, 20, 40 and 80 mg/kg), while the Pregabalin dose remained constant (0.04 mg/kg). The administrations were performed 3.5 hours after surgery. The treated subjects were tested according to the mechanical allodynia protocol above (FIG. 1).
The efficacy of the combined use of Gabapentin and compound 63.HCl was tested at different doses of compound 63.HCl (10, 20, 40 and 80 mg/kg), while the Gabapentin dose remained constant (10 mg/kg). The administrations were performed 3.5 hours after surgery. The treated subjects were tested according to the mechanical allodynia protocol above (FIG. 2).

Structures are written as SMILES. Counter-ions that a name gives are not always drawn.

Consider `NCC1(CC(=O)O)CCCCC1` [Gabapentin], for which, for the setting “Gabapentin alone at 10 mg/kg, non-significant, FIG. 2”, the “effect (analgesia, mechanical allodynia)” value was found to be 0±2%. As to `CC(C)C[C@H](CN)CC(=O)O` [Pregabalin], the “effect (analgesia, mechanical allodynia)” value (Pregabalin alone, sub-active dose 0.04 mg/kg, FIG. 1) was “non-significant effect”.

As to `Cc1cc(OCCN2CCOCC2)nn1-c1ccc2ccccc2c1` [compound 63.HCl, 4-{2-[5-Methyl-1-(naphthalen-2-yl)-1H-pyrazol-3-yloxy]ethyl}morpholine hydrochloride], the ED50 (as a rule, the dose at which the effect has come halfway, by size or by number of responders) (Rattus norvegicus, compound alone, 10, 20, 40 and 80 mg/kg, FIG. 2) amounted to 40 mg/kg. Also, the Emax (Rattus norvegicus, compound alone, dose dependent (5, 10, 20, 40 and 80 mg/kg), FIG. 1, 30 min after administration, 4 h after plantar incision, read-out: maximum effect) came to 43%.
